Laboratory results as given in ChEMBL document CHEMBL3046832, “Synthesis of some sulfonamides, disubstituted sulfonylureas or thioureas and some structurally related variants. A class of promising antitumor agents” (2007).

Assays:
Format in all cases: functional
MDA-MB-435 = experiment: Cytotoxicity against Homo sapiens (human) MDA-MB-435 cells after 48 hr by SRB assay; settings: MDA-MB-435, 48 h
M14 = experiment: Cytotoxicity against Homo sapiens (human) M14 cells after 48 hr by SRB assay; settings: M14, 48 h
LOX IMVI = experiment: Cytotoxicity against Homo sapiens (human) LOXIMVI cells after 48 hr by SRB assay
U-251 = experiment: Cytotoxicity against Homo sapiens (human) U251 cells after 48 hr by SRB assay; settings: U-251, 48 h
SNB-75 = experiment: Cytotoxicity against Homo sapiens (human) SNB75 cells after 48 hr by SRB assay; settings: SNB-75, 48 h
Hs-578T = experiment: Cytotoxicity against Homo sapiens (human) Hs578T cells after 48 hr by SRB assay
MCF7 [1] = experiment: Cytotoxicity against Homo sapiens (human) MCF7 cells after 48 hr by SRB assay; settings: MCF7, 48 h
MDA-MB-231 = experiment: Cytotoxicity against Homo sapiens (human) MDA-MB-231 cells after 48 hr by SRB assay; settings: MDA-MB-231, 48 h
DU-145 = experiment: Cytotoxicity against Homo sapiens (human) DU145 cells after 48 hr by SRB assay; settings: DU-145, 48 h
UO-31 = experiment: Cytotoxicity against Homo sapiens (human) UO31 cells after 48 hr by SRB assay; settings: UO-31, 48 h
CAKI-1 = experiment: Cytotoxicity against Homo sapiens (human) Caki1 cells after 48 hr by SRB assay; settings: CAKI-1, 48 h
ACHN = experiment: Cytotoxicity against Homo sapiens (human) ACHN cells after 48 hr by SRB assay
786-0 = experiment: Cytotoxicity against Homo sapiens (human) 786-0 cells after 48 hr by SRB assay; settings: 786-0, 48 h
OVCAR-8 = experiment: Cytotoxicity against Homo sapiens (human) OVCAR8 cells after 48 hr by SRB assay; settings: OVCAR-8, 48 h
OVCAR-5 = experiment: Cytotoxicity against Homo sapiens (human) OVCAR5 cells after 48 hr by SRB assay; settings: OVCAR-5, 48 h
OVCAR-4 = experiment: Cytotoxicity against Homo sapiens (human) OVCAR4 cells after 48 hr by SRB assay; settings: OVCAR-4, 48 h
IGROV-1 = experiment: Cytotoxicity against Homo sapiens (human) IGROV1 cells after 48 hr by SRB assay; settings: IGROV-1, 48 h
OVCAR-3 = experiment: Cytotoxicity against Homo sapiens (human) OVCAR3 cells after 48 hr by SRB assay; settings: OVCAR-3, 48 h
UACC-62 = experiment: Cytotoxicity against Homo sapiens (human) UACC62 cells after 48 hr by SRB assay; settings: UACC-62, 48 h
UACC-257 = experiment: Cytotoxicity against Homo sapiens (human) UACC257 cells after 48 hr by SRB assay; settings: UACC-257, 48 h
SK-MEL-5 = experiment: Cytotoxicity against Homo sapiens (human) SK-MEL-5 cells after 48 hr by SRB assay; settings: SK-MEL-5, 48 h
[2] = Cytotoxicity against Homo sapiens (human) breast cancer cells after 48 hr by SRB assay; settings: Cancer cell lines
[3] = Cytotoxicity against Homo sapiens (human) prostate cancer cells after 48 hr by SRB assay; settings: Cancer cell lines
[4] = Cytotoxicity against Homo sapiens (human) renal cancer cells after 48 hr by SRB assay; settings: Cancer cell lines
[5] = Cytotoxicity against Homo sapiens (human) melanoma cells after 48 hr by SRB assay; settings: Melanoma cell
[6] = Cytotoxicity against Homo sapiens (human) CNS cancer cells after 48 hr by SRB assay; settings: Cancer cell lines
[7] = Cytotoxicity against Homo sapiens (human) colon cancer cells after 48 hr by SRB assay; settings: Cancer cell lines
[8] = Cytotoxicity against Homo sapiens (human) non-small cell lung cancer cells after 48 hr by SRB assay; settings: Cancer cell lines
NCI-H460 = experiment: Cytotoxicity against Homo sapiens (human) NCI-H460 cells assessed as cellular growth after 48 hr by Alamar blue assay; parameters: concentration or dose not given beside the values
[9] = Cytotoxicity against Homo sapiens (human) leukemia cells after 48 hr by SRB assay; settings: Leukemia cell
T47D = experiment: Cytotoxicity against Homo sapiens (human) T47D cells after 48 hr by SRB assay
SF-539 = experiment: Cytotoxicity against Homo sapiens (human) SF539 cells after 48 hr by SRB assay; settings: SF-539, 48 h
SF-295 = experiment: Cytotoxicity against Homo sapiens (human) SF295 cells after 48 hr by SRB assay; settings: SF-295, 48 h
SF-268 = experiment: Cytotoxicity against Homo sapiens (human) SF268 cells after 48 hr by SRB assay; settings: SF-268, 48 h
HCT-15 = experiment: Cytotoxicity against Homo sapiens (human) HCT15 cells after 48 hr by SRB assay; settings: HCT-15, 48 h
HT-29 = experiment: Cytotoxicity against Homo sapiens (human) HT-29 cells after 48 hr by SRB assay; settings: HT-29, 48 h
HCC 2998 = experiment: Cytotoxicity against Homo sapiens (human) HCC2998 cells after 48 hr by SRB assay; settings: HCC 2998, 48 h
NCI-H522 = experiment: Cytotoxicity against Homo sapiens (human) NCI-H522 cells after 48 hr by SRB assay; settings: NCI-H522, 48 h
COLO 205 = experiment: Cytotoxicity against Homo sapiens (human) COLO205 cells after 48 hr by SRB assay; settings: COLO 205, 48 h
NCI-H23 = experiment: Cytotoxicity against Homo sapiens (human) NCI-H23 cells after 48 hr by SRB assay; settings: NCI-H23, 48 h
[10] = Cytotoxicity against Homo sapiens (human) NCI-H322 cells after 48 hr by SRB assay; settings: NCI-H322, 48 h
EKVX = experiment: Cytotoxicity against Homo sapiens (human) EKVX cells after 48 hr by SRB assay
HOP-62 = experiment: Cytotoxicity against Homo sapiens (human) HOP62 cells after 48 hr by SRB assay; settings: HOP-62, 48 h
A549 = experiment: Cytotoxicity against Homo sapiens (human) A549 cells after 48 hr by SRB assay; settings: A549, 48 h
MOLT-4 = experiment: Cytotoxicity against Homo sapiens (human) MOLT4 cells after 48 hr by SRB assay; settings: MOLT-4, 48 h
CCRF-CEM = experiment: Cytotoxicity against Homo sapiens (human) CCRF-CEM cells after 48 hr by SRB assay
MCF7 [11] = experiment: Cytotoxicity against Homo sapiens (human) MCF7 cells assessed as cellular growth after 48 hr by Alamar blue assay; parameters: concentration or dose not given beside the values

`O=C1CS/C(=N\S(=O)(=O)c2ccc(N3N=C4c5ccccc5CC4C3c3cccs3)cc2)N(c2ccccc2)C1` (stereo not given) gave a GI50 (MDA-MB-435) of 29.5 µM, a GI50 (M14) of 39.1 µM and a GI50 (LOX IMVI) of 21.2 µM. The GI50 (U-251) was 28 µM, the GI50 (SNB-75) was > 100 µM and the GI50 (Hs-578T) was 20.5 µM. The GI50 (MCF7 [1]) was 88.8 µM, the GI50 (MDA-MB-231) was 21.4 µM and the GI50 (DU-145) was 30.7 µM. The GI50 (UO-31) was 69.3 µM, the GI50 (CAKI-1) was 74.5 µM and the GI50 (ACHN) was 22.1 µM. It also gave a GI50 (786-0) of 22.1 µM, a GI50 (OVCAR-8) of 25.4 µM and a GI50 (OVCAR-5) of 34.5 µM. The GI50 (OVCAR-4) was > 100 µM, the GI50 (IGROV-1) was 19.5 µM and the GI50 (OVCAR-3) was > 100 µM. It also gave a GI50 (UACC-62) of 16.1 µM, a GI50 (UACC-257) of 42.3 µM and a GI50 (SK-MEL-5) of 38.2 µM. It also gave a GI50 [2] of 50.1 µM, a TGI [2] of 95.5 µM and a GI50 [3] of 37.8 µM. The TGI [3] was > 100 µM, the GI50 [4] was 43.9 µM and the TGI [4] was 96.4 µM. It also gave a GI50 [5] of 45.3 µM, a TGI [5] of 84.3 µM and a GI50 [6] of 57.4 µM. It also gave a TGI [6] of 99.7 µM, a GI50 [7] of 37.2 µM and a TGI [7] of 66.3 µM. The GI50 [8] was 41.2 µM, the TGI [8] was 79 µM and the Activity (NCI-H460) was “<=32%”. It also gave a GI50 [9] of 19.5 µM, a TGI [9] of 82.1 µM and a GI50 (T47D) of 69.2 µM. For the same compound, the GI50 (SF-539) was 27.8 µM, the GI50 (SF-295) was 32.7 µM and the GI50 (SF-268) was > 100 µM. It also gave a GI50 (HCT-15) of 35.5 µM, a GI50 (HT-29) of 61 µM and a GI50 (HCC 2998) of 20.5 µM. For the same compound, the GI50 (NCI-H522) was 23.8 µM, the GI50 (COLO 205) was 57.2 µM and the GI50 (NCI-H23) was 24.2 µM. For the same compound, the GI50 [10] was 16.9 µM, the GI50 (EKVX) was 39.5 µM and the GI50 (HOP-62) was 17.4 µM. For the same compound, the GI50 (A549) was 47.2 µM, the GI50 (MOLT-4) was 0.01 µM and the GI50 (CCRF-CEM) was 36.8 µM. The Activity (MCF7 [11]) was “<=32%”.
